Reference: patent US10344002B2, “Compositions and methods for treating metabolic disorders” (NuSirt Sciences, Inc., priority 2016, dated 2019)

Experiments:
C2C12 muscle cells [1] = assay: Fatty acid oxidation (oxygen consumption rate, Seahorse XF-24) in C2C12 muscle cells; type: cell-based; conditions: same system
Procedure: Cell Culture: C2C12 muscle cells were seeded with 40,000 cells per well on Seahorse tissue culture plates in Dulbecco's modified eagle's medium (DMEM) containing 10% fetal bovine serum (FBS) and antibiotics (1% penicillin-streptomycin) at 37° C. in 5% CO2. After reaching confluency (24 hours), cells were induced to differentiate with DMEM containing 2% Horse Serum for 3 to 4 days until myotubes were fully formed. Cells were then treated with indicated concentration of Compound 2 for 24 hours.
(§1) Compound 2 was dissolved in 100% DMSO to a stock concentration of 100 mM. This stock was further diluted to indicated concentrations in DMEM media.
Fatty acid oxidation: Baseline and palmitate-stimulated oxygen consumption rates were measured with XF-24 analyzer (Seahorse Bioscience (now part of Agilent Technologies), MA, USA). After 24 hour treatment with Compound 2 of differentiated C2C12 muscle cells, cells were washed twice with non-buffered carbonate-free pH 7.4 low glucose (2.5 mM) DMEM containing carnitine (0.5 mM), equilibrated with 600 μl of the same media in a non-CO2 incubator for 45 minutes, and then inserted into the instrument for 15 minutes of further equilibration, followed by O2 consumption measurement. Three successive baseline measures at five-minute intervals were taken prior to injection of palmitate (200 μM final concentration). Sets of three five-minute intervals followed by 10-minute time delay were continued over a 2 to 3 hour period after palmitate injection. The area under the curve of 02 consumption change from baseline for each sample was then calculated and used for subsequent analysis. Data are represented as mean±SD for each treatment group.

HepG2 liver cells [2] = assay: Lipid accumulation (Oil Red Staining) in HepG2 liver cells induced with high glucose plus insulin; type: cell-based; conditions: same system
Procedure: Cell Culture: HepG2 liver cells were seeded with 80,000 cells per well on 24-well tissue culture plates in low glucose (5 mM) DMEM containing 10% FBS and antibiotics. After 24 hours of attachment, lipid accumulation was induced by incubating cells with high glucose (25 mM) DMEM (10% FBS, 1% Pen-Strep) plus 100 nM insulin for 48 hours. Cells were then treated with indicated concentrations of Compound 2 for an additional 48 hours.
as §1
Lipid accumulation (Oil Red Staining): HepG2 liver cells were seeded and treated as described above. After 48 hours of treatment with Compound 2, lipid accumulation in HepG2 was measured via Oil Red Staining. Cells were washed with phosphate buffered saline (PBS) once, then cells were fixated with 10% formalin for 1 hour. After removal of the formalin, cells were washed with ddH2O twice, then washed with 60% isopropanol. Cells were dried completely. Cells were stained with Oil Red working solution (˜5 mM) for 25 minutes, then immediately washed with ddH2O four times, then dried completely again. Oil Red dye was eluted with 100% isopropanol and absorbance was read at 500 nm. Unstained cells plus isopropanol was used as a blank and subtracted from all readings. Data are represented as mean±SEM for each treatment group.

C2C12 muscle cells [3] = conditions: same system, metformin alone; cited from earlier work
HepG2 liver cells [4] = conditions: same system, metformin alone; cited from earlier work

CN(C)C(=N)NC(=N)N [metformin, Metformin, reference compound]
fold higher concentration (in comparison with Compound 2) for fat oxidation (C2C12 muscle cells [1]): 100,000 fold | fold higher concentration (in comparison with Compound 2) for reducing hepatic lipids (HepG2 liver cells [2]): 100,000 fold | concentration below which fat oxidation is not stimulated (C2C12 muscle cells [3]): ≥ 1 mM | concentration below which hepatic lipids are not reduced (HepG2 liver cells [4]): ≥ 1 mM
